Measurements as given in ChEMBL document CHEMBL1201862, “PubChem BioAssay data set” (2004).
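Test compounds were applied to cells in 96-well plates for 48 hours at 5 doses. Here, GI50 denotes the concentration required for 50% inhibition of growth.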 Activity calls are given as the source filed them. Rule as the data show it: active = GI50 up to about 1.1 µM and inactive = higher.

Tests used:
Assay in all cases: inhibition of tumour cell growth, NCI panel, 48 h
786-0 = system: 786-0
BT-549 = system: BT-549
DU-145 = system: DU-145
HOP-92 = system: HOP-92
HT-29 = system: HT-29
KM12 = system: KM12
LOX IMVI = system: LOX IMVI
MDA-MB-435 = system: MDA-MB-435
MOLT-4 = system: MOLT-4
NCI-H522 = system: NCI-H522
OVCAR-4 = system: OVCAR-4
OVCAR-8 = system: OVCAR-8
RXF 393 = system: RXF 393
SF-295 = system: SF-295
SK-MEL-28 = system: SK-MEL-28
SK-MEL-2 = system: SK-MEL-2
SK-OV-3 = system: SK-OV-3
SNB-19 = system: SNB-19
SW-620 = system: SW-620
TK-10 = system: TK-10

Measured: GI50

Cc1c(C2=C(Br)C(=O)N(C)C2=O)c(=O)n(C)c(=O)n1C
inactive: 786-0 17.5 µM | BT-549 24.3 µM | DU-145 28 µM | HOP-92 17.7 µM | HT-29 20.3 µM | KM12 > 100 µM | LOX IMVI 17.1 µM | MDA-MB-435 24.9 µM | MOLT-4 15.8 µM | NCI-H522 13.6 µM | OVCAR-4 37.7 µM | OVCAR-8 29.6 µM | RXF 393 14.3 µM | SF-295 > 100 µM | SK-MEL-28 39.4 µM | SK-MEL-2 16.1 µM | SK-OV-3 > 100 µM | SNB-19 > 100 µM | SW-620 31.4 µM | TK-10 17.4 µM
